Experimental data reported in PMC9363231, “High‐resolution analysis of individual spike peptide‐specific CD4 ^+ T‐cell responses in vaccine recipients and COVID‐19 patients” (Clinical & Translational Immunology, 2022).
Where two headings read alike, the source gives them in different places.

How the values were obtained:
HLA-DRB1*15:01 = HLA-DRB1*15:01 (Homo sapiens, UniProt P01903+P01911); test: biochemical; assay type: binding
HLA-DPB1*04:02 = test: In vitro HLA binding (data not shown); set-up: species or system human
HLA-DPB1*04:01 = molecular target: T1, HLA-DPB1*04:01 (Homo sapiens, UniProt P04440+P20036); test: In vitro HLA binding (data not shown)
T1 sequence (P04440 30-258): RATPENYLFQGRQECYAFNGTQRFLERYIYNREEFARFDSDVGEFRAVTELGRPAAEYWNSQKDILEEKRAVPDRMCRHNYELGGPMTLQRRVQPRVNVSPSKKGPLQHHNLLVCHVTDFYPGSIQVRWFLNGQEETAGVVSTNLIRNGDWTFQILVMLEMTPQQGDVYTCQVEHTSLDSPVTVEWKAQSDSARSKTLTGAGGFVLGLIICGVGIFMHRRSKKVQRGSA
T1 sequence (P20036 29-260): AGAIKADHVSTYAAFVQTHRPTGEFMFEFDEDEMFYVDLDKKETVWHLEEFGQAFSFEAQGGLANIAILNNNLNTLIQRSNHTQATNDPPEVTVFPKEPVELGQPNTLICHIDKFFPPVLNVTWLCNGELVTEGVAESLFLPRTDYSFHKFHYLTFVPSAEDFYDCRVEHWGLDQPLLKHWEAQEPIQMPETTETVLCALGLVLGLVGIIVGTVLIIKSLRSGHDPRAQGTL

CD4+ T cells = assay type: cell-based, human
HLA-DRB1*08:02 = HLA-DRB1*08:02 (Homo sapiens, UniProt P01903+P01911, A100R/A103L/A169T/F76Y/H45Y/I96F/K41T/L162R/M171V/P40S/Q125H/Q178H/Q39Y/Q99D/R218S/R42G/S66Y/V115G/W38E); test: biochemical; assay type: binding
HLA-DRB1*01:01 = HLA-DRB1*01:01 (Homo sapiens, UniProt P01903+P01911, A100R/D57E/F55L/F60I/F76Y/I96L/L162R/M171V/P40L/Q125E/R42F/V115G/Y59C); test: biochemical; assay type: binding
HLA-DRB1*04:05 = HLA-DRB1*04:05 (Homo sapiens, UniProt P01903+P01911, A100R/A169T/D86S/F76Y/I96L/K127E/L162R/M171V/N62H/P40V/Q125Y/R42H/S133A/S149N/S66Y/V115G/V209L/W38E); test: biochemical; assay type: binding
HLA-DRB1*04:01 = HLA-DRB1*04:01 (Homo sapiens, UniProt P01903+P01911, A100K/A169T/F76Y/I96L/K127E/L162R/M171V/N62H/P40V/Q125Y/R42H/S133A/S149N/S66Y/V115G/V209L/W38E); test: biochemical; assay type: binding
HLA-DRB1*12:01 = HLA-DRB1*12:01 (Homo sapiens, UniProt P01903+P01911, A100R/A169T/D57E/D86V/F55L/H45Y/K41T/L162R/M171V/P40S/Q125H/Q178H/Q39Y/Q99D/R42G/S66L/T262R/V114A/V67L/W38E/Y59H/Y61H/Y89S); test: biochemical; assay type: binding
HLA-DRB1*13:02 = HLA-DRB1*13:02 (Homo sapiens, UniProt P01903+P01911, A100E/A169T/K41T/L162R/M171V/P40S/Q125H/Q178H/Q39Y/Q99D/R42S/S66N/T262R/V115G/W38E/Y61H); test: biochemical; assay type: binding
Chain of HLA-DRB1*13:02 (P01903 26-254 limits assumed, other chains not shown): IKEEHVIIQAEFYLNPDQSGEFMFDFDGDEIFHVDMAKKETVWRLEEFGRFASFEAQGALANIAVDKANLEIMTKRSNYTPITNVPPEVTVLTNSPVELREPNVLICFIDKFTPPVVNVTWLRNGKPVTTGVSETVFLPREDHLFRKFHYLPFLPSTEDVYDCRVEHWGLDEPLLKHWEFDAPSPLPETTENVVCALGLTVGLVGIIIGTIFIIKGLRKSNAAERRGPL
HLA-DRB1*07:01 = HLA-DRB1*07:01 (Homo sapiens, UniProt P01903+P01911, A100R/A102G/A103Q/D57E/D86V/E43K/F76Y/K127E/L162R/M171V/P40G/Q125H/Q99D/R33Q/R42Y/R54Q/S133A/S66F/T210M/V115G/Y107V/Y59L/Y89S); test: biochemical; assay type: binding
HLA-DRB1*11:01 = HLA-DRB1*11:01 (Homo sapiens, UniProt P01903+P01911, A100R/A169T/A87E/I96F/K41T/L162R/M171V/P40S/Q125H/Q178H/Q39Y/Q99D/R42S/S66Y/T262R/V115G/W38E); test: biochemical; assay type: binding
Chain of HLA-DRB1*11:01 (P01903 26-254 limits assumed, other chains not shown): as above
HLA-DRB1*03:01 = HLA-DRB1*03:01 (Homo sapiens, UniProt P01903+P01911, A100K/A102G/A103R/A169T/F55Y/I96L/K41T/L162R/M171V/P40S/Q125H/Q178H/Q39Y/R42S/S66N/T106N/T262R/W38E/Y61H); test: biochemical; assay type: binding
Chain of HLA-DRB1*03:01 (P01903 26-254, other chains not shown): as the sequence (P01903 26-254 limits assumed, other chains not shown) above
HLA-DRB1*09:01 = HLA-DRB1*09:01 (Homo sapiens, UniProt P01903+P01911, A100R/A103E/D57H/D86V/F55Y/F60I/F76Y/I96F/K127E/L162R/M171V/P40D/Q125H/Q99R/R33Q/R42F/S133A/S66N/T210M/V115G/W38K/Y107V/Y59G/Y89S); test: biochemical; assay type: binding

| Compound | IC50 (HLA-DRB1*08:02) [µM] | IC50 (HLA-DRB1*15:01) [µM] | IC50 (HLA-DRB1*01:01) [µM] | IC50 (HLA-DRB1*04:05) [µM] | IC50 (HLA-DRB1*04:01) [µM] | IC50 (HLA-DRB1*12:01) [µM] | IC50 (HLA-DRB1*13:02) [µM] | IC50 (HLA-DRB1*07:01) [µM] | IC50 (HLA-DRB1*11:01) [µM] | IC50 (HLA-DRB1*03:01) [µM] | IC50 (HLA-DRB1*09:01) [µM] | also measured |
| --- | --- | --- | --- | --- | --- | --- | --- | --- | --- | --- | --- | --- |
| CC(C)C[C@H](NC(=O)[C@H](Cc1ccccc1)NC(=O)[C@@H]1CCCN1C(=O)[C@H](CC(=O)O)NC(=O)[C@H](CC(N)=O)NC(=O)[C@H](CS)NC(=O)[C@H](Cc1ccccc1)NC(=O)[C@H](CCC(N)=O)NC(=O)[C@H](Cc1ccccc1)NC(=O)[C@H](CCC(=O)O)NC(=O)[C@@H](N)CS)C(=O)NCC(=O)N[C@H](C(=O)N[C@@H](Cc1ccc(O)cc1)C(=O)N[C@@H](Cc1ccc(O)cc1)C(=O)O)C(C)C [peptide 27] | – | – | – | – | – | – | – | – | – | – | – | IC50 (HLA-DRB1*15:01; read-out: in vitro binding capacity (IC50), DRB1*15:01): 7.65 µM; binding to HLA-DPB1*04:02 (HLA-DPB1*04:02): high affinity; binding to HLA-DPB1*04:01 (HLA-DPB1*04:01): high affinity; responding patients, DRB1*01:01 (CD4+ T cells; responders / study participants carrying DRB1*01:01, CD4+ IFN-γ response, peptide 10 μg mL−1, after 14 days expansion): 4/6; responding patients, DRB1*03:01 (CD4+ T cells; responders / study participants carrying DRB1*03:01, CD4+ IFN-γ response, peptide 10 μg mL−1, after 14 days expansion): 2/3; responding patients, DRB1*04:01 (CD4+ T cells; responders / study participants carrying DRB1*04:01, CD4+ IFN-γ response, peptide 10 μg mL−1, after 14 days expansion): 4/4; responding patients, DRB1*07:01 (CD4+ T cells; responders / study participants carrying DRB1*07:01, CD4+ IFN-γ response, peptide 10 μg mL−1, after 14 days expansion): 5/8; responding patients, DRB1*11:01 (CD4+ T cells; responders / study participants carrying DRB1*11:01, CD4+ IFN-γ response, peptide 10 μg mL−1, after 14 days expansion): 3/3; responding patients, DRB1*12:01 (CD4+ T cells; responders / study participants carrying DRB1*12:01, CD4+ IFN-γ response, peptide 10 μg mL−1, after 14 days expansion): 0/1; responding patients, DRB1*15:01 (CD4+ T cells; responders / study participants carrying DRB1*15:01, CD4+ IFN-γ response, peptide 10 μg mL−1, after 14 days expansion): 3/7; response frequency (RF) / recognition rate of CD4+ T-cell response (CD4+ T cells; share of the 35 participants with a CD4+ IFN-γ response to the peptide): 64% |
| CC[C@H](C)[C@H](NC(=O)CN)C(=O)N[C@@H](Cc1ccc(O)cc1)C(=O)N[C@@H](CCC(N)=O)C(=O)N[C@H](C(=O)N[C@@H](CO)C(=O)N[C@@H](CC(N)=O)C(=O)N[C@@H](Cc1ccccc1)C(=O)N[C@@H](CCCNC(=N)N)C(=O)N[C@H](C(=O)N[C@@H](CCC(N)=O)C(=O)N1CCC[C@H]1C(=O)N[C@H](C(=O)N[C@@H](CCC(=O)O)C(=O)N[C@@H](CO)C(=O)O)[C@@H](C)O)C(C)C)[C@@H](C)O [compound 63] | > 40 | 0.021 | 2.39 | 0.201 | 0.062 | 2.07 | 10.7 | 0.012 | 1.14 | > 40 | 0.305 | – |
| CC[C@H](C)[C@H](NC(=O)[C@H](CCCNC(=N)N)NC(=O)[C@H](CCCCN)NC(=O)[C@H](CCCNC(=N)N)NC(=O)[C@H](CC(N)=O)NC(=O)[C@H](Cc1c[nH]c2ccccc12)NC(=O)[C@H](C)NC(=O)[C@H](Cc1ccc(O)cc1)NC(=O)[C@@H](NC(=O)[C@H](CO)NC(=O)[C@H](C)NC(=O)[C@H](Cc1ccccc1)NC(=O)[C@@H](N)CCCNC(=N)N)C(C)C)C(=O)N[C@@H](CO)C(=O)N[C@@H](CC(N)=O)C(=O)O [compound 70] | 0.064 | 0.136 | 5.93 | 6.27 | 7.89 | 31.6 | > 40 | 0.54 | 0.0039 | > 40 | 1.38 | – |
